Laboratory results from ChEMBL document CHEMBL1125463, “Inhibition of N8-acetylspermidine deacetylase by active-site-directed metal coordinating inhibitors” (J Med Chem, 1992).

Tests used:
[1] = In vitro inhibition of N8-Acetylspermidine deacetylase from rat liver cytosol(apparent Ki); details: for Ki: read-out: Ki app
[2] = (§1) In vitro inhibition of N8-Acetylspermidine deacetylase from rat liver cytosol; details: read-out: Ki app
[3] = In vitro inhibition of N8-Acetylspermidine deacetylase from rat liver cytosol(apparent Ki); Ni means no inhibition
[4] = species on record: Rattus norvegicus; assay: as §1

Molecule	Ki [1]	also measured
NCCCCCC(=O)O [AMINOCAPROIC ACID]	50 µM	–
NCCCCC(=O)O [5-AMINOVALERIC ACID]	4100 µM	–
NCCCNCCCCCC(=O)O	–	Ki [2]: 11 µM
NC(=O)CI [IODOACETAMIDE]	–	Ki app [3]: Not Active
c1ccc(-c2ccccn2)nc1 [DIPYRIDYL]	–	Ki [2]: 1900 µM
CCN1C(=O)C=CC1=O [N-ETHYLMALEIMIDE]	860 µM	–
c1cnc2ccc3ncccc3c2c1	–	Ki app [1]: No inhibition
Para-Hydroxymercuribenzoic acid	150 µM	–
c1cnc2c(c1)ccc1cccnc12 [PHENANTHROLINE]	1300 µM	–
NCCCNCCCCCC(=O)NO	0.001 µM	–
CC(=O)NCCCCN	800 µM	–
CC(=O)NCCCCNCCCN	–	Km [4]: 11 µM
O=C(O)CN(CCN(CC(=O)O)CC(=O)O)CC(=O)O [EDETIC ACID]	–	Ki [2]: 3500 µM
CCCC(=O)[O-].[Na+] [SODIUM BUTYRATE]	38500 µM	–
